The values that follow come from publication PMC6177136, “Hybrid topoisomerase I and HDAC inhibitors as dual action anticancer agents” (PLoS ONE, 2018).

The structures appear in SMILES notation.

One experiment addresses HDAC1 (Homo sapiens, UniProt Q13547). Description: HDAC profiling HDAC1. The format is biochemical. As to conditions: purified isoform, 10 concentrations from 10 μM, triplicate.
The target of a further experiment is HDAC10 (Homo sapiens, UniProt Q969S8). Description: HDAC profiling HDAC10. Type of experiment: biochemical. As to conditions: purified isoform, 10 concentrations from 10 μM, triplicate.
The subject of another experiment is NCI-H460. Description: Cytotoxicity assay (SRB, 72 h) NCI-H460. The format is cell-based, Human. As to conditions: Homo sapiens.
The next experiment has as its target HDAC6 (Homo sapiens, UniProt Q9UBN7). Description: HDAC profiling HDAC6. Type of experiment: biochemical. The following applies: purified isoform, 10 concentrations from 10 μM, triplicate.
A further experiment addresses HDAC2 (Homo sapiens, UniProt Q92769). Description: HDAC profiling HDAC2. The format is biochemical. As to conditions: purified isoform, 10 concentrations from 10 μM, triplicate.
In the next experiment the test system is A431. Description: Cytotoxicity assay (SRB, 72 h) A431. The format is cell-based, Human. As to conditions: Homo sapiens, A-431, read-out: IC50 ± SD A431.
For another experiment, the system named is A2780. Description: Cytotoxicity assay (SRB, 72 h) A2780. As to conditions: Homo sapiens, A2780, read-out: IC50 ± SD A2780. Type of experiment: cell-based, Human.
Another experiment concerns A2780-Dx. Description: Cytotoxicity assay (SRB, 72 h) A2780-Dx. Type of experiment: cell-based, Human.
Another experiment deals with Acetylated Histone H4. The experiment is described as follows: Western blot, acetylation of histone H4 in NCI-H460 cells. The format is cell-based, Human. As to conditions: 24 h; SN38 0.05 μM, SAHA 5 μM, 3b and 3d 0.125–0.2–0.5 μM. How it is done:
(§1) The supernatant, containing the total proteins extracts, were transferred in new vials. The protein concentration was measured by Bradford Protein Assay. Equal amounts of proteins for each sample were then resolved by SDS-PAGE and loaded on 10–12% polyacrilamide gels. The proteins were then transferred on nitrocellulose membranes. Molecular weights were estimated based upon the relative migration with molecular weight protein markers.
(§2) The non-specific binding was blocked by incubation of membranes in TBS-tween (25 mM Tris, 150 mM NaCl, 0.1% Tween 20) with 5% nonfat dry milk (BIORAD, Milan) for 60 minutes. Subsequently, the membrane was incubated overnight with primary antibodies: anti-Histone H4 (Millipore, 1:500), anti-acetyl-H4 (Santa Cruz, 1:1000) anti-p21 (Santa Cruz, 1:1000), anti-acetyl-tubulin (abcam, 1:1000), anti-α-tubulin (Sigma, 1:5000), anti β-actin (Sigma, 1:5000) and anti-Topoisomerase 1 (Santa Cruz, 1:500). After three washes with TBST blots were incubated with HRP-coniugated secondary anti-mouse and anti-rabbit (Santa Cruz, 1:5000) 1 hour at room temperature. After three washes with TBST the blots were developed with ECL substrate (GE Healthcare) and chemiluminescence detected by ChemiDoc Imaging System (Biorad). The optical density of the protein bands detected by western blotting was normalized on α -tubulin levels and analyzed by ChemiDoc software (Biorad). […]
In general terms: Immunoblotting shows a protein as a band on a membrane.

The test system of the next experiment is Acetylated Tubulin. The experiment is described as follows: Western blot, acetylation of tubulin in NCI-H460 cells. Type of experiment: cell-based, Human. As to conditions: 24 h; SN38 0.05 μM, SAHA 5 μM, 3b and 3d 0.125–0.2–0.5 μM. How it is done: as §1, §2
For another experiment, the system named is HeLa. The experiment is described as follows: Cytotoxicity assay (SRB, 72 h) HeLa. The following applies: Homo sapiens, HeLa, read-out: IC50 ± SD HeLa. Type of experiment: cell-based, Human.
For the next experiment, the system named is Capan 1. The experiment is described as follows: Cytotoxicity assay (SRB, 72 h) Capan 1. As to conditions: Homo sapiens, CAPAN-1, read-out: IC50 ± SD Capan 1. Type of experiment: cell-based, Human.

Sequence of HDAC2 (Q92769 whole entry, canonical isoform): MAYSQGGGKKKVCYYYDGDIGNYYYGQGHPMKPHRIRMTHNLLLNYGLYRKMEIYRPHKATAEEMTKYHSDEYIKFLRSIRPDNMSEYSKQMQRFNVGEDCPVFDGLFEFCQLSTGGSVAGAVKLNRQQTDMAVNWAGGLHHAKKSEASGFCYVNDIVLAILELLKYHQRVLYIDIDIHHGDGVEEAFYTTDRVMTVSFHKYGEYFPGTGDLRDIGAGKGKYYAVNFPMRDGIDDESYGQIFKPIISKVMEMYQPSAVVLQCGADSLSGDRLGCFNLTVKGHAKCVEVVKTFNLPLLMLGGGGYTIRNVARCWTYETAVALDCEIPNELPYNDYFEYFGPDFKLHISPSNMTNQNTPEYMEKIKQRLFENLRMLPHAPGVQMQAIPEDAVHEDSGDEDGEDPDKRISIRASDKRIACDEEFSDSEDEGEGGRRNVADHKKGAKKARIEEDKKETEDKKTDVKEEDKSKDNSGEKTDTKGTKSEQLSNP
Sequence of HDAC6 (Q9UBN7 whole entry, canonical isoform): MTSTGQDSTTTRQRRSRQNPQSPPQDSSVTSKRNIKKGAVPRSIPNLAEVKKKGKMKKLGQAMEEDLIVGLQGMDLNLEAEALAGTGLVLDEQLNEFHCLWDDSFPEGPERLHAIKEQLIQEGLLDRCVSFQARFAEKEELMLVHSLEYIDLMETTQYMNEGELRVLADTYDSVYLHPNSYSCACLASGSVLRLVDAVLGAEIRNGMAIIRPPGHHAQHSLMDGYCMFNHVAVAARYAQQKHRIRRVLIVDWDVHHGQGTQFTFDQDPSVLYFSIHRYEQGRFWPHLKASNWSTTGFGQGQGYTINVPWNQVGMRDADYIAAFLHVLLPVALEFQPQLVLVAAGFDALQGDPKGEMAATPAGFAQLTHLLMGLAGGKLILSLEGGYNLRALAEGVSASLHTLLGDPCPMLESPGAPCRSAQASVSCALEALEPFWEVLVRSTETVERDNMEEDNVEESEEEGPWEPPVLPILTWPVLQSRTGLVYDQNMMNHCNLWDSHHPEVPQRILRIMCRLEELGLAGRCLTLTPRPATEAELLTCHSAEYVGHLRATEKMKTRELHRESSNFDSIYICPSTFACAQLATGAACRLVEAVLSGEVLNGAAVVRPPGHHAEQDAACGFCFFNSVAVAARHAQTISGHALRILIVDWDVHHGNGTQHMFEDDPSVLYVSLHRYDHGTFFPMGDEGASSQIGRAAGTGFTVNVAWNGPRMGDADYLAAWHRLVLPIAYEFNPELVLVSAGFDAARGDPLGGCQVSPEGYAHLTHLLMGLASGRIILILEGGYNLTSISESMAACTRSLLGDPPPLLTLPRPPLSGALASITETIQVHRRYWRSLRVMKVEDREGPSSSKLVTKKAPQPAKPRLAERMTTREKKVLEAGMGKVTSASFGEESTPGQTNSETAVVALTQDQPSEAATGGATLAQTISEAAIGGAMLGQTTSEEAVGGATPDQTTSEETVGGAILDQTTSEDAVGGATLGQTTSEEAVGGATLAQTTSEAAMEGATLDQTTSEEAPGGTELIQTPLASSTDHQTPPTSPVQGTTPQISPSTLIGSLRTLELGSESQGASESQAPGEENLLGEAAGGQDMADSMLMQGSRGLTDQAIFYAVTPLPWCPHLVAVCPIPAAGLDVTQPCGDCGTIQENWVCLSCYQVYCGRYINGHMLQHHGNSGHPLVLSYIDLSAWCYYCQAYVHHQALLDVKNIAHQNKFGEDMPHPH
Sequence of HDAC10 (Q969S8 whole entry, canonical isoform): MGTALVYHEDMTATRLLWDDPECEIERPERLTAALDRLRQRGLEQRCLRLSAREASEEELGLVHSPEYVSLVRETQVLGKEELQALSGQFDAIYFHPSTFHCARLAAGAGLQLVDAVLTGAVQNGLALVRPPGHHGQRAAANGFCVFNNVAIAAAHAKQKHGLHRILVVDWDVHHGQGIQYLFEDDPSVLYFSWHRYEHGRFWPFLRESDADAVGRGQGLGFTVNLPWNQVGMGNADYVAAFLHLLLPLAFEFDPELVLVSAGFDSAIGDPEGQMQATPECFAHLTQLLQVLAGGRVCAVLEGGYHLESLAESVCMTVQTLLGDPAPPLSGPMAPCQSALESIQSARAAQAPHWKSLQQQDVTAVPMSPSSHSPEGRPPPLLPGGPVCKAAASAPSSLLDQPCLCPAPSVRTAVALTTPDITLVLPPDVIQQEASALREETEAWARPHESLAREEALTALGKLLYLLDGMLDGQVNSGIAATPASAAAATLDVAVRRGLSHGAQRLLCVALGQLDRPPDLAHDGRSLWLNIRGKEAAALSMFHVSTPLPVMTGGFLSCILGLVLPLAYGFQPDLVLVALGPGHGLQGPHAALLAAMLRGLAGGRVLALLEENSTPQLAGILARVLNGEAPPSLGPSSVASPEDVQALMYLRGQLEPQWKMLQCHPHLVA
Sequence of HDAC1 (Q13547 whole entry, canonical isoform): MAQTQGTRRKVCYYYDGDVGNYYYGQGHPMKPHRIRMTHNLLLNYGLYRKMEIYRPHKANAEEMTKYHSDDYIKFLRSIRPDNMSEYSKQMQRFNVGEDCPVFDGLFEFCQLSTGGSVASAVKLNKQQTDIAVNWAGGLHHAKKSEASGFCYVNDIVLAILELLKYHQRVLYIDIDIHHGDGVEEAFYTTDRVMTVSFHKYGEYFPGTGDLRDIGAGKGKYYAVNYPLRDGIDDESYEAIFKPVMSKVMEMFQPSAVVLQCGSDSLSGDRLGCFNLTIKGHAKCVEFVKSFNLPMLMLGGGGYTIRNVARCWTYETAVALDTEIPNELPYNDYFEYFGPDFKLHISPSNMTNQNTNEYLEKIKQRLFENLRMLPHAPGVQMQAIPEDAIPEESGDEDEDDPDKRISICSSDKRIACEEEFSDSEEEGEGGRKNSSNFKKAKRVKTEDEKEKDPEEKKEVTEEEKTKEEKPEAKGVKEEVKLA

Consider `CC[C@@]1(O)C(=O)OCc2c1cc1n(c2=O)Cc2c-1nc1ccccc1c2C=NOCCCCCC(=O)NO` [Compound 3b, 6-(camptothecin-7-ylmethyleneaminooxy)-hexanoic acid hydroxyamide], for which the IC50 at HDAC1 came out at 43 nM; on HDAC10, 99.9 nM; with NCI-H460 (NCI-H460, 72 h, SRB assay, read-out: IC50 ± SD NCI-H460), 23 ± 4 nM; against HDAC6 it was 3.87 nM; against HDAC2 it was 76.2 nM; with A431, 4 ± 1 nM. Further, the IC50 was found to be 8 ± 2 nM in the experiment on A2780; 270 ± 70 nM with A2780-Dx (Homo sapiens, A2780/DX, 72 h, SRB assay, multidrug-resistant ovarian carcinoma, read-out: IC50 ± SD A2780-Dx); 160 ± 40 nM in the experiment on HeLa; 6 ± 0.7 nM with Capan 1. Further, the IC80 in the experiment with NCI-H460 (NCI-H460 cells) is 500 nM. Further, the “RI (Resistance Index)” value in the experiment with A2780-Dx (A2780-Dx versus A2780) is reported as 31.7. In addition, in the experiment on Acetylated Histone H4, the “accumulation of acetylated histone H4” value is reported as “less potent than 3d on both targets, particularly on H4”. Moreover, in the experiment on Acetylated Tubulin, the “accumulation of acetylated tubulin” value is given as “less potent than 3d on both targets”.

What is called IC50 is the concentration that inhibits the measured activity by half. Usually IC80 stands for the concentration at which the effect reaches the 80% level.
